The text below walks through data of patent publication US20250171437A1 (Agios Pharmaceuticals,Inc., priority 2022, published 2025).

The structures appear in SMILES notation.

One assay has as its target T1, human PAH with the R408W mutation (A375 R408W cells) (Homo sapiens, UniProt P00439, R408W).
T1 construct: expressed in transfected cells
T1 sequence (P00439 1-452 R408W): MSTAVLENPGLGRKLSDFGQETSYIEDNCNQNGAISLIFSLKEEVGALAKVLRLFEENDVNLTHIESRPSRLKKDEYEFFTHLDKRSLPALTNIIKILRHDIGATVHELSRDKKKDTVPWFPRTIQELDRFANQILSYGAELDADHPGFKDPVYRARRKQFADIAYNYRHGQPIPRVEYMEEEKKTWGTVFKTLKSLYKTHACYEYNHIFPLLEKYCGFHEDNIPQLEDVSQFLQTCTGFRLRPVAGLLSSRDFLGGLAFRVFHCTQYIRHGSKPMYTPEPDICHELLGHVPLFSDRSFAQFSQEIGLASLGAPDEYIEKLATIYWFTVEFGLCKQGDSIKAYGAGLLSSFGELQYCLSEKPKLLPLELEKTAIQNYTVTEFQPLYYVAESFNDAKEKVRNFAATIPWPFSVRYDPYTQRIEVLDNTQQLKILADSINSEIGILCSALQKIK
As to the kind of experiment: Cell Based Phenylalanine Flux Assay. The conditions noted are these: A375 R408W cells; 24 hrs with compound, then 20 μM sepiapterin and 800 μM 13C9,15N-Phenylalanine for 4 hours; 13C-Tyrosine by LC-MS; average where tested multiple times. In short, it runs like this:
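Stable R408W PAH A375 cells: 24 h compound pretreatment in duplicate, then 4 h with 800 μM isotope-labelled Phe and 20 μM sepiapterin. Labelled Tyr output by LC-MS; AC50 averaged where repeated.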
As usually defined, the AC50 is the concentration at which the activity in the assay is half-maximal. As for `O=C(c1ccnn1C(F)(F)F)N1CCc2[nH]cnc2[C@@H]1c1nc2cccc(F)c2o1` [Example 290, (R)-(4-(7-fluorobenzo[d]oxazol-2-yl)-6,7-dihydro-1H-imidazo[4,5-c]pyridin-5(4H)-yl)(1-(trifluoromethyl)-1H-pyrazol-5-yl)methanone], the AC50 lay in the range of 1000 to 5000 nM.
For `O=C(c1ccnn1CC(F)F)N1CCc2[nH]cnc2[C@H]1c1nc2ccccc2o1` [Example 835, (S)-(4-(benzo[d]oxazol-2-yl)-6,7-dihydro-1H-imidazo[4,5-c]pyridin-5(4H)-yl)(1-(2,2-difluoroethyl)-1H-pyrazol-5-yl)methanone], the AC50 was no more than 500 nM.
Still for that read-out and setting: with `Cc1cnn(C)c1-c1nnc(C(=O)N2CCc3[nH]cnc3[C@@H]2c2nc3cc(F)ccc3o2)o1` [Example 120, (R)-(5-(1,4-dimethyl-1H-pyrazol-5-yl)-1,3,4-oxadiazol-2-yl)(4-(5-fluorobenzo[d]oxazol-2-yl)-6,7-dihydro-1H-imidazo[4,5-c]pyridin-5(4H)-yl)methanone] the figure was 1000 to 5000 nM.
Consider `O=C(c1nnc(-c2ccccn2)o1)N1CCc2[nH]cnc2[C@@H]1c1nc2cccc(F)c2o1` [Example 336, (R)-(4-(7-fluorobenzo[d]oxazol-2-yl)-6,7-dihydro-1H-imidazo[4,5-c]pyridin-5(4H)-yl)(5-(pyridin-2-yl)-1,3,4-oxadiazol-2-yl)methanone], for which the AC50 lay in the range of 500 to 1000 nM.
With `Cc1nc(-c2ccccn2)oc1C(=O)N1CCc2[nH]cnc2[C@@H]1c1nc2cc(F)ccc2o1` [Example 32, (R)-(4-(5-fluorobenzo[d]oxazol-2-yl)-6,7-dihydro-1H-imidazo[4,5-c]pyridin-5(4H)-yl)(4-methyl-2-(pyridin-2-yl)oxazol-5-yl)methanone], the AC50 was in the range of 1000 to 5000 nM.
Still for that read-out and setting: as for `CC(C)(O)c1nc(C(F)F)c(C(=O)N2CCc3[nH]cnc3[C@@H]2c2nc3cc(Cl)cc(F)c3o2)o1` [Example 606, (R)-(4-(5-chloro-7-fluorobenzo[d]oxazol-2-yl)-6,7-dihydro-1H-imidazo[4,5-c]pyridin-5(4H)-yl)(4-(difluoromethyl)-2-(2-hydroxypropan-2-yl)oxazol-5-yl)methanone], the figure is no more than 500 nM; as for `O=C(c1ocnc1C(F)F)N1CCc2[nH]cnc2[C@@H]1c1nc2c(F)cccc2o1` [Example 170, (R)-(4-(difluoromethyl)oxazol-5-yl)(4-(4-fluorobenzo[d]oxazol-2-yl)-6,7-dihydro-1H-imidazo[4,5-c]pyridin-5(4H)-yl)methanone], 500 to 1000 nM.
In the case of `Cc1nc([C@@H](C)O)oc1C(=O)N1CCc2[nH]cnc2[C@@H]1c1nc2cc(F)ccc2o1` [Example 136, ((R)-4-(5-fluorobenzo[d]oxazol-2-yl)-6,7-dihydro-1H-imidazo[4,5-c]pyridin-5(4H)-yl)(2-((R)-1-hydroxyethyl)-4-methyloxazol-5-yl)methanone], the AC50 is no less than 5000 nM.
Consider `O=C(c1oc(N2CCOCC2)nc1C(F)F)N1CCc2[nH]cnc2[C@@H]1c1nc2cccc(F)c2o1` [Example 647, (R)-(4-(difluoromethyl)-2-morpholinooxazol-5-yl)(4-(7-fluorobenzo[d]oxazol-2-yl)-6,7-dihydro-1H-imidazo[4,5-c]pyridin-5(4H)-yl)methanone], for which the AC50 fell in the range of 500 to 1000 nM.
Turning to `O=C(c1cnn2cc(N3CCC(F)CC3)ccc12)N1CCc2[nH]cnc2[C@H]1c1nc2cccc(F)c2o1` [Example 369, (S)-(4-(7-fluorobenzo[d]oxazol-2-yl)-6,7-dihydro-1H-imidazo[4,5-c]pyridin-5(4H)-yl)(6-(4-fluoropiperidin-1-yl)pyrazolo[1,5-a]pyridin-3-yl)methanone], the AC50 was no more than 500 nM.
`CN1CCN(c2ccc3c(C(=O)N4CCc5[nH]cnc5[C@@H]4c4nc5cccc(F)c5o4)cnn3c2)CC1` [Example 364, (R)-(4-(7-fluorobenzo[d]oxazol-2-yl)-6,7-dihydro-1H-imidazo[4,5-c]pyridin-5(4H)-yl)(6-(4-methylpiperazin-1-yl)pyrazolo[1,5-a]pyridin-3-yl)methanone]: the AC50 was in the range of 1000 to 5000 nM.
On the same count and under the same terms, with `Cc1nc([C@H](C)O)oc1C(=O)N1CCc2[nH]cnc2[C@@H]1c1nc2ccc(F)cc2o1` [Example 242, ((R)-4-(6-fluorobenzo[d]oxazol-2-yl)-6,7-dihydro-1H-imidazo[4,5-c]pyridin-5(4H)-yl)(2-((S)-1-hydroxyethyl)-4-methyloxazol-5-yl)methanone] the figure was no less than 5000 nM.
The same measure, in the same setting: with `O=C(c1nnc(-c2ccc(F)cc2)o1)N1CCc2[nH]cnc2[C@@H]1c1nc2cc(F)ccc2o1` [Example 28, (R)-(4-(5-fluorobenzo[d]oxazol-2-yl)-6,7-dihydro-1H-imidazo[4,5-c]pyridin-5(4H)-yl)(5-(4-fluorophenyl)-1,3,4-oxadiazol-2-yl)methanone] the figure was 1000 to 5000 nM.
Same read-out and setting: with `COc1cc(F)cc2nc([C@@H]3c4nc[nH]c4CCN3C(=O)c3ocnc3C(F)F)oc12` [Example 718, (S)-(4-(difluoromethyl)oxazol-5-yl)(4-(5-fluoro-7-methoxybenzo[d]oxazol-2-yl)-6,7-dihydro-1H-imidazo[4,5-c]pyridin-5(4H)-yl)methanone] the figure was no more than 500 nM.
As for `CC(C)(O)c1nc(C(F)F)c(C(=O)N2CCc3[nH]cnc3[C@@H]2c2nc3ccc(F)c(F)c3o2)o1` [Example 298, (R)-(4-(6,7-difluorobenzo[d]oxazol-2-yl)-6,7-dihydro-1H-imidazo[4,5-c]pyridin-5(4H)-yl)(4-(difluoromethyl)-2-(2-hydroxypropan-2-yl)oxazol-5-yl)methanone], the AC50 was 1000 to 5000 nM.
`O=C(c1oc(C2(O)CC2)nc1C(F)F)N1CCc2[nH]cnc2[C@@H]1c1nc2c(F)cccc2o1` [Example 216, (R)-(4-(difluoromethyl)-2-(1-hydroxycyclopropyl)oxazol-5-yl)(4-(4-fluorobenzo[d]oxazol-2-yl)-6,7-dihydro-1H-imidazo[4,5-c]pyridin-5(4H)-yl)methanone]: the AC50 lay in the range of 1000 to 5000 nM.
On to `CC(C)(O)c1nc(Cl)c(C(=O)N2CCc3[nH]cnc3[C@H]2c2nc3cccc(F)c3o2)o1` [Example 272, (S)-(4-chloro-2-(2-hydroxypropan-2-yl)oxazol-5-yl)(4-(7-fluorobenzo[d]oxazol-2-yl)-6,7-dihydro-1H-imidazo[4,5-c]pyridin-5(4H)-yl)methanone], for which the AC50 is no more than 500 nM.
The same measure, in the same setting: as for `Cc1cccc2oc([C@@H]3c4nc[nH]c4CCN3C(=O)c3nnc(-c4cnn(C)c4)o3)nc12` [Example 480, (S)-(5-(1-methyl-1H-pyrazol-4-yl)-1,3,4-oxadiazol-2-yl)(4-(4-methylbenzo[d]oxazol-2-yl)-6,7-dihydro-1H-imidazo[4,5-c]pyridin-5(4H)-yl)methanone], the figure is no more than 500 nM; as for `Cn1cc(-c2nnc(C(=O)N3CCc4[nH]cnc4[C@@H]3c3nc4cc(F)ccc4o3)o2)cn1` [Example 68, (R)-(4-(5-fluorobenzo[d]oxazol-2-yl)-6,7-dihydro-1H-imidazo[4,5-c]pyridin-5(4H)-yl)(5-(1-methyl-1H-pyrazol-4-yl)-1,3,4-oxadiazol-2-yl)methanone], 1000 to 5000 nM; as for `CC(C)(C#N)c1nc(C(F)F)c(C(=O)N2CCc3[nH]cnc3[C@@H]2c2nc3cc(F)ccc3o2)o1` [Example 160, (R)-2-(4-(difluoromethyl)-5-(4-(5-fluorobenzo[d]oxazol-2-yl)-4,5,6,7-tetrahydro-1H-imidazo[4,5-c]pyridine-5-carbonyl)oxazol-2-yl)-2-methylpropanenitrile], 500 to 1000 nM.

The assay is the same for the next values; noted with them: A375 cells expressing R408W PAH; 24 hrs with compound, then 20 μM sepiapterin and 800 μM 13C9,15N-Phenylalanine for 4 hours; 13C-Tyrosine by LC-MS; average where tested multiple times.
Consider `O=C(c1cncs1)N1CCc2[nH]cnc2C1c1nc2cc(F)ccc2o1` (centres unmarked), for which the AC50 was no less than 5000 nM.
As for `O=C(c1ccn(CC(F)F)n1)N1CCc2[nH]cnc2C1c1nc2c(F)cccc2o1` (centres unmarked), the AC50 was 1000 to 5000 nM.
For `NCCc1ccc2c(C(=O)N3CCc4[nH]cnc4C3c3nc4cc(F)ccc4o3)cnn2c1` (single isomer, unassigned) [4S enantiomer of 2-{3-[4-(5-fluoro-1,3-benzoxazol-2-yl)-1H,4], the AC50 is no less than 5000 nM.
As for `Cn1nc(-c2ccccn2)nc1C(=O)N1CCc2[nH]cnc2C1c1nc2cccc(F)c2o1` (centres unmarked), the half-maximal activity concentration (AC50) fell in the range of 1000 to 5000 nM.
With `O=C(c1cnn2cc(N3CCC(O)CC3)ccc12)N1CCc2[nH]cnc2C1c1nc2c(F)cccc2o1` (centres unmarked), the AC50 was 1000 to 5000 nM.
As for `Nc1ccc2c(C(=O)N3CCc4[nH]cnc4C3c3nc4cc(F)ccc4o3)cnn2c1` (centres unmarked), the half-maximal activity concentration (AC50) is 1000 to 5000 nM.
In the case of `Cn1nc(C(C)(C)C)nc1C(=O)N1CCc2[nH]cnc2C1c1nc2ccccc2o1` (centres unmarked), the AC50 is no less than 5000 nM.
Take `Cc1nc(C(C)O)oc1C(=O)N1CCc2[nH]cnc2C1c1nc2c(F)cccc2o1` (centres unmarked): the AC50 is 1000 to 5000 nM.
Same read-out and setting: with `CNC(C)(C)c1nc(C)c(C(=O)N2CCc3[nH]cnc3C2c2nc3cc(F)ccc3o2)o1` (centres unmarked) the figure was 1000 to 5000 nM.
As for `CC(C)(O)c1ncc(C(=O)N2CCc3[nH]cnc3C2c2nc3cc(F)cc(F)c3o2)o1` (centres unmarked), the AC50 lay within 1000 to 5000 nM.
The same measure, in the same setting: with `O=C(c1cn[nH]c1)N1CCc2[nH]cnc2[C@H]1c1nc2cc(F)ccc2o1` (single isomer, unassigned) the figure was no less than 5000 nM; with `O=C(c1cnn2cc(N3CCOCC3)ccc12)N1CCc2[nH]cnc2C1c1nc2cc(F)ccc2o1` (centres unmarked), no less than 5000 nM.
